We go through three compounds from patent US20250188088A1, “COMPOUND AND USE THEREOF” (ONQUALITY PHARMACEUTICALS CHINA LTD., priority 2022, published 2025).

In test [1] the test system is rash caused by small molecule EGFR inhibitors. Put plainly: Treatment of rash caused by small molecule EGFR inhibitors, topical ointment, rat model. In kind it is in vivo, SD rats. On the procedure:
An Experiment to Verify the Treatment of Rash Caused by Small Molecule EGFR Inhibitors with Topical Administration of Compounds of the Present Application on a Rat Animal Model After the SD rats were fed and adapted for one week (about 200 g), the rats were divided into 10 rats per group. The hair on the back of rats was gently removed with an electric razor one day before the experiment, and then an intragastric administration test was carried out. EGFR inhibitors were dissolved in a sterile aqueous solution, and diluted with PBS buffer; the amount of each gavage was not more than 2 mL, and the dosage was shown in Table 3. […] The experiments were divided into the administration group with the compound of the present application and the control group. During the treatment experiment, EGFR inhibitors were intragastrically administered continuously every day. After the gavage, the administration group applied the compound ointment of the present application on the back (about 3 cm*3 cm) of rats, and the control group applied blank matrix ointment on the back (about 3 cm*3 cm); after application, the rats were fixed with a fixed cyclinder for about 4 hours, and then the rats were released, with the residual drug at the application site wiped off with clean water, and put back into the cage. The frequency of intragastric administration of EGFR inhibitors is shown in Table 3, but the compounds of the present application and blank ointment are applied only once a day. […] Table 3 lists the animal experiment combinations of various small molecule EGFR inhibitors and the compound ointment of the present application, as well as the corresponding experiment results (wherein, the value in the control rate column=the number of rats whose rash is milder in the administration group than that in the control group/the total number of rats in the administration group×100%).

Test [2] concerns skin contact delayed-type hypersensitivity. Put plainly: Skin contact delayed-type hypersensitivity (DNFB) response test, ear swelling, topical ointment. It counts as in vivo. The settings on record: topical to ears, DNFB DTH, Balb/c mice, compared to blank ointment. The source says:
Therapeutic Effect of Topical Administration of Compounds of the Present Application in Skin Contact Delayed-Type Hypersensitivity Response Test in Mice Delayed-type hypersensitivity (DTH) response in mouse skin is considered to be an effective model for clinical contact dermatitis and other T cell-mediated cutaneous immune diseases, such as atopic dermatitis and psoriasis. The DTH in mice shares the common features with these cutaneous immune diseases, including immunoinfiltration with an increase of inflammatory cytokines and hyperproliferation of keratinocytes. Balb/c mice were sensitized by topical administration of the antigen 2,4-dinitrofluorobenzene (DNFB) to the shaved back of mice on Days 0 and 1. On Day 5, the thickness of the ears was measured using an engineering micrometer. The measurement result was recorded and used as a baseline. The animals were then challenged with a total of 20 μL of DNFB (10 μL for the internal pinna and 10 μL for the external pinna) topically dosed to both ears at a concentration of 0.2%. The ears were measured again 24-72 hours after challenge. The compound ointment of the present application was applied topically to the ears of the animals throughout the allergic and challenge periods (Days −1˜7) or before or throughout the challenge period (generally Days 4˜7). The therapeutic effect was expressed by a reduction in ear swelling compared to that of the blank ointment. The compound causing a reduction of 20% or more was considered effective. Table 5 lists the skin contact delayed-type hypersensitivity experiment results in mice treated with the compound of the present application.

For test [3], the system named is rash caused by monoclonal EGFR inhibitors. Put plainly: Treatment of rash caused by monoclonal EGFR inhibitors, topical ointment, rat model. In kind it is in vivo. As to conditions: SD rats. The method, then:
An Experiment to Verify the Treatment of Rash Caused by Monoclonal EGFR Inhibitors with Topical Administration of Compounds of the Present Application on a Rat Animal Model After the SD rats were fed and adapted for one week (about 200 g), the rats were divided into 10 rats per group. The hair on the back of rats was gently removed with an electric razor one day before the experiment, and then an administration test was carried out. The EGFR monoclonal antibody solution diluted with normal saline was injected via tail vein twice a week, and the injection rate and time were shown in Table 4; the treatment experiment was started at the time point when rats developed a rash after continuous administration for 1-2 weeks. The experiments were divided into the administration group with the compound of the present application and the control group. During the treatment experiment, monoclonal antibody EGFR inhibitors were injected twice a week. the administration group applied the compound ointment of the present application on the back (about 3 cm*3 cm) of rats every day, and the control group applied blank matrix ointment on the back (about 3 cm*3 cm); after application, the rats were fixed with a fixed cyclinder for about 4 hours, and then the rats were released, with the residual drug at the application site wiped off with clean water, and put back into the cage. […] Table 4 lists the animal experiment combinations of monoclonal antibody EGFR inhibitors and the compound ointment of the present application, as well as the corresponding experiment results (wherein, the value in the control rate column=the number of rats whose rash is milder in the administration group than that in the control group/the total number of rats in the administration group×100%).

The mark [4] stands for this setting: Afatinib 40 mg/kg once a day, 6 dosing modelling days, ointment 5.0 wt% once a day.
Where [5] appears, read: EAI045 80 mg/kg once a day, 8 dosing modelling days, ointment 5.0 wt% once a day.
Where [6] appears, read: Osimertinib 60 mg/kg twice a day, 7 dosing modelling days, ointment 1.0 wt% once a day.
The mark [7] stands for this setting: Osimertinib 60 mg/kg twice a day, 7 dosing modelling days, ointment 10.0 wt% once a day.

For the compound `C[C@@H]1CN(C(=O)CC#N)[C@@]12CCN(c1ncnc3c1ccn3C(=O)N(C)CCOC(=O)c1ccn[nH]1)C2` [Compound A31], the “Control Rate” value in test [1] (Afatinib 40 mg/kg once a day, 6 dosing modelling days, ointment 0.1 wt% once a day) worked out at 10%; in test [1] (Afatinib 40 mg/kg once a day, 6 dosing modelling days, ointment 1.0 wt% once a day), 60%; in test [1] (Afatinib 40 mg/kg once a day, 6 dosing modelling days, ointment 3.0 wt% once a day), 70%; in test [1] (setting [4]), 90%; in test [1] (Afatinib 40 mg/kg once a day, 6 dosing modelling days, ointment 10.0 wt% once a day), 90%; in test [1] (EAI045 80 mg/kg once a day, 8 dosing modelling days, ointment 0.1 wt% once a day) it was 20%. The “Control Rate” value in test [1] (setting [5]) amounted to 70%; in test [1] (EAI045 80 mg/kg once a day, 8 dosing modelling days, ointment 10.0 wt% once a day) it was 90%; in test [1] (Gefitinib 80 mg/kg twice a day, 10 dosing modelling days, ointment 0.3 wt% once a day) it was 20%; in test [1] (Gefitinib 80 mg/kg twice a day, 10 dosing modelling days, ointment 3.0 wt% once a day), 40%; in test [1] (Gefitinib 80 mg/kg twice a day, 10 dosing modelling days, ointment 10.0 wt% once a day), 90%; in test [1] (Osimertinib 60 mg/kg twice a day, 7 dosing modelling days, ointment 0.5 wt% once a day) it was 40%. Moreover, the “Control Rate” value came out at 60% in test [1] (setting [6]) and 70% in test [1] (Osimertinib 60 mg/kg twice a day, 7 dosing modelling days, ointment 5.0 wt% once a day). Moreover, the “Reduction Rate of Ear Swelling” value in test [2] (ointment 1.0 wt%) is listed as 16%; in test [2] (ointment 5.0 wt%), 28%.

For the compound `C=CC(=O)N1C[C@@H](Nc2ncnc3c2ccn3C(=O)N(C)CCOC(=O)C2CC2)CC[C@H]1C` [Compound A33], the “Control Rate” value in test [1] (EAI045 80 mg/kg once a day, 8 dosing modelling days, ointment 1.0 wt% once a day) was determined as 30%; in test [1] (setting [5]) it was 60%; in test [1] (Osimertinib 60 mg/kg twice a day, 7 dosing modelling days, ointment 3.0 wt% once a day), 30%; in test [1] (setting [7]), 70%; in test [3] (Cetuximab 100 mg/kg twice a week via tail vein, ointment 0.1 wt%, 10 days of drug application), 20%; in test [3] (Cetuximab 100 mg/kg twice a week via tail vein, ointment 1.0 wt%, 10 days of drug application), 50%. Besides, the “Control Rate” value is reported as 80% in test [3] (Cetuximab 100 mg/kg twice a week via tail vein, ointment 5.0 wt%, 10 days of drug application); 100% in test [3] (Cetuximab 100 mg/kg twice a week via tail vein, ointment 10.0 wt%, 10 days of drug application); 30% in test [3] (Panitumumab 6 mg/kg twice a week via tail vein, ointment 0.1 wt%, 8 days of drug application); 70% in test [3] (Panitumumab 6 mg/kg twice a week via tail vein, ointment 1.0 wt%, 8 days of drug application); 70% in test [3] (Panitumumab 6 mg/kg twice a week via tail vein, ointment 5.0 wt%, 8 days of drug application); 100% in test [3] (Panitumumab 6 mg/kg twice a week via tail vein, ointment 10.0 wt%, 8 days of drug application). The “Reduction Rate of Ear Swelling” value in test [2] (ointment 1.0 wt%) is 22%; in test [2] (ointment 5.0 wt%), 32%.

As to `CN(CCOC(=O)C1CCCCC1)C(=O)n1ccc2c(-c3cnn(C4(CC#N)CN(C5CCN(C(=O)c6ccnc(C(F)(F)F)c6F)CC5)C4)c3)ncnc21` [Compound A36], the “Control Rate” value was found to be 20% in test [1] (Afatinib 40 mg/kg once a day, 6 dosing modelling days, ointment 0.5 wt% once a day); 60% in test [1] (setting [4]); 30% in test [1] (BPI-7711 60 mg/kg once a day, 6 dosing modelling days, ointment 5.0 wt% once a day); 20% in test [1] (EAI045 80 mg/kg once a day, 8 dosing modelling days, ointment 0.5 wt% once a day); 40% in test [1] (setting [5]); 60% in test [1] (Larotinib 20 mg/kg once a day, 6 dosing modelling days, ointment 5.0 wt% once a day). In addition, the “Control Rate” value in test [1] (setting [6]) is recorded as 30%; in test [1] (setting [7]), 50%. In addition, the results for the “Reduction Rate of Ear Swelling” value in test [2] (ointment 1.0 wt%) and in test [2] (ointment 5.0 wt%) were 29% and 34%, respectively.
